In patent US7057052B2, “Heterocyclic quinones as pharmaceutical agents” (Duke University, priority 2002, dated 2006):

These compounds were tested against T1, Cdc25B (Homo sapiens, UniProt P30305) (assay: Cdc25B phosphatase inhibition (50 μM screen, 3 pt. and 8 pt. IC-50)). Conditions: Cdc25B; 3 pt. IC-50 using 1, 7 and 50 μM; read-out: IC50 (3 pt).
T1 sequence (P30305 1-580): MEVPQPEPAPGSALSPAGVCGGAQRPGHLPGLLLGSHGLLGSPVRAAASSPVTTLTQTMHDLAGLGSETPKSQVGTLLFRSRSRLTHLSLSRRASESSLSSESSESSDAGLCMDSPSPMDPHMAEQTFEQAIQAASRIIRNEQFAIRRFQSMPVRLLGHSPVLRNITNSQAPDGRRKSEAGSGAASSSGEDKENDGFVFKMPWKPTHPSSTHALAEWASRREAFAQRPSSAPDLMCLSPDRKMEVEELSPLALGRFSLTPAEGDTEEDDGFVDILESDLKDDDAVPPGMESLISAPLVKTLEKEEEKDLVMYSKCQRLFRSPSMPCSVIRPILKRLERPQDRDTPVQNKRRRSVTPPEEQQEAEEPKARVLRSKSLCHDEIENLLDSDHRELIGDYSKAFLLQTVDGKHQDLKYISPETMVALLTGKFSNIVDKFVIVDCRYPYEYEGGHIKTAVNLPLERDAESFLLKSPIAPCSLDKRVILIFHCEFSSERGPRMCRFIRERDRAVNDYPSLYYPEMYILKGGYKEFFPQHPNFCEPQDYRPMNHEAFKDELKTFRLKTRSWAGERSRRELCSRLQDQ
Format: biochemical
Description: Using procedures known to those skilled in the art, the compounds listed in Table 3 were screened against Cdc25A, Cdc25B, and Cdc25C at 50 μM. […] To analyze these effects further, the compounds were then screened against Cdc25B in a 3 pt. IC-50, using 1, 7 and 50 μM. Several of the compounds were also screened with an 8 pt. IC-50 process, using 0.1–10 μM, allowing determination of Hill slopes.

IC50 [µM]	Structure (SMILES)
0.6	CC(C)(C)c1[nH]c2ccccc2c1C1=C(O)C(=O)C(c2c[nH]c3ccc(OCc4ccccc4)cc23)=C(O)C1=O [10A, 2-(2-tert-butyl-1H-indol-3-yl)-3,6-dihydroxy-5-(5-benzyloxy-1H-indol-3-yl)-[1,4]-benzoquinone]
7.2	Cc1ccc2[nH]cc(C3=C(O)C(=O)C(c4c(C(C)(C)C)[nH]c5ccccc45)=C(O)C3=O)c2c1 [10B, 2-(2-tert-butyl-1H-indol-3-yl)-3,6-dihydroxy-5-(5-methyl-1H-indol-3-yl)-[1,4]-benzoquinone]
5.3	CC(C)(C)c1[nH]c2ccccc2c1C1=C(O)C(=O)C(c2c[nH]c3cc(F)ccc23)=C(O)C1=O [10C, 2-(2-tert-butyl-1H-indol-3-yl)-3,6-dihydroxy-5-(6-fluoro-1H-indol-3-yl)-[1,4]-benzoquinone]
5.3	Cc1ccc2c(C3=C(O)C(=O)C(c4c(C(C)(C)C)[nH]c5ccccc45)=C(O)C3=O)c[nH]c2c1 [10D, 2-(2-tert-butyl-1H-indol-3-yl)-3,6-dihydroxy-5-(6-methyl-1H-indol-3-yl)-[1,4]-benzoquinone]
4.8	Cc1cccc2c(C3=C(O)C(=O)C(c4c(C(C)(C)C)[nH]c5ccccc45)=C(O)C3=O)c[nH]c12 [10E, 2-(2-tert-butyl-1H-indol-3-yl)-3,6-dihydroxy-5-(7-methyl-1H-indol-3-yl)-[1,4]-benzoquinone]
0.9	CC(C)(C)c1[nH]c2ccccc2c1C1=C(O)C(=O)C(c2c[nH]c3c(C(C)(C)C)cccc23)=C(O)C1=O [10F, 2-(2-tert-butyl-1H-indol-3-yl)-3,6-dihydroxy-5-(7-tert-butyl-1H-indol-3-yl)-[1,4]-benzoquinone]
14.6	Cc1ccc2[nH]c(C)c(C3=C(O)C(=O)C(c4c(C(C)(C)C)[nH]c5ccccc45)=C(O)C3=O)c2c1 [10G, 2-(2-tert-butyl-1H-indol-3-yl)-3,6-dihydroxy-5-(2,5-dimethyl-1H-indol-3-yl)-[1,4]-benzoquinone]
11.5	COc1ccc2[nH]c(C)c(C3=C(O)C(=O)C(c4c(C(C)(C)C)[nH]c5ccccc45)=C(O)C3=O)c2c1 [10H, 2-(2-tert-butyl-1H-indol-3-yl)-3,6-dihydroxy-5-(2-methyl-5-methoxy-1H-indol-3-yl)-[1,4]-benzoquinone]
8.4	Cc1[nH]c2ccc(Cl)cc2c1C1=C(O)C(=O)C(c2c(C(C)(C)C)[nH]c3ccccc23)=C(O)C1=O [11A, 2-(2-tert-butyl-1H-indol-3-yl)-3,6-dihydroxy-5-(2-methyl-5-chloro-1H-indol-3-yl)-[1,4]-benzoquinone]
7.9	Cn1cc(C2=C(O)C(=O)C(c3ccccc3)=C(O)C2=O)c2ccccc21 [11B, 2,5-dihydroxy-3-(1-methyl-1H-indol-3-yl)-6-phenyl-[1,4]-benzoquinone]
15.7	Cc1[nH]c2ccccc2c1C1=C(O)C(=O)C(c2c(C)[nH]c3ccccc23)=C(O)C1=O [11C, 2,5-dihydroxy-3,6-bis(2-methyl-1H-indol-3-yl)l-[1,4]-benzoquinone]
22.9	CC(C)(C)c1[nH]c2ccccc2c1C1=C(O)C(=O)C(c2c(C(C)(C)C)[nH]c3ccccc23)=C(Cl)C1=O [11E, 2,5-bis(2-tert-butyl-1H-indol-3-yl)-3-chloro-6-hydroxy-[1,4]-benzoquinone]
49.9	CC(C)(C)c1[nH]c2ccccc2c1C1=C(Cl)C(=O)C(c2c[nH]c3ccccc23)=C(O)C1=O [11F, 2-(2-tert-butyl-1H-indol-3-yl)-5-(1H-indol-3-yl)-3-chloro-6-hydroxy-[1,4]-benzoquinone]
33.8	Cc1cccc2c(C3=C(O)C(=O)C(c4c(C(C)(C)C)[nH]c5ccccc45)=C(Cl)C3=O)c[nH]c12 [11G, 2-(2-tert-butyl-1H-indol-3-yl)-5-(7-methyl-1H-indol-3-yl)-3-chloro-6-hydroxy-[1,4]-benzoquinone]
6.7	CC(C)(C)c1[nH]c2ccccc2c1C1=C(Cl)C(=O)C(c2c(-c3ccccc3)[nH]c3ccccc23)=C(O)C1=O [11H, 2-(2-tert-butyl-1H-indol-3-yl)-5-(2-phenyl-1H-indol-3-yl)-3-chloro-6-hydroxy-[1,4]-benzoquinone]

Second part, the compound before the results:

Structure (SMILES)	IC50 [µM]
CC(C)(C)c1[nH]c2ccccc2c1C1=C(Cl)C(=O)C(c2c[nH]c3c(C(C)(C)C)cccc23)=C(O)C1=O [8D, 2-(2-tert-butyl-1H-indol-3-yl)-5-(7-tert-butyl-1H-indol-3-yl)-3-chloro-6-hydroxy-[1,4]-benzoquinone]	5.8
C=CC(C)(C)c1[nH]c2ccccc2c1C1=C(O)C(=O)C(c2c[nH]c3c(CC=C(C)C)cccc23)=C(O)C1=O [8E, DAQ-B1, reference compound]	0.9
CC(C)(C)c1[nH]c2ccccc2c1C1=C(O)C(=O)C(c2c[nH]c3ccccc23)=C(O)C1=O [8F, 2-(2-tert-butyl-1H-indol-3-yl)-3,6-dihydroxy-5-(1H-indol-3-yl)-[1,4]-benzoquinone]	11.2
Cn1cc(C2=C(O)C(=O)C(c3c(C(C)(C)C)[nH]c4ccccc34)=C(O)C2=O)c2ccccc21 [8G, 2-(2-tert-butyl-1H-indol-3-yl)-3,6-dihydroxy-5-(1-methyl-1H-indol-3-yl)-[1,4]-benzoquinone]	12
Cc1[nH]c2ccccc2c1C1=C(O)C(=O)C(c2c(C(C)(C)C)[nH]c3ccccc23)=C(O)C1=O [8H, 2-(2-tert-butyl-1H-indol-3-yl)-3,6-dihydroxy-5-(2-methyl-1H-indol-3-yl)-[1,4]-benzoquinone]	5.8
CC(C)(C)c1[nH]c2ccccc2c1C1=C(O)C(=O)C(c2c(C3CC3)[nH]c3ccccc23)=C(O)C1=O [9A, 2-(2-tert-butyl-1H-indol-3-yl)-3,6-dihydroxy-5-(2-cyclopropyl-1H-indol-3-yl)-[1,4]-benzoquinone]	5.6
CC(C)c1[nH]c2ccccc2c1C1=C(O)C(=O)C(c2c(C(C)(C)C)[nH]c3ccccc23)=C(O)C1=O [9B, 2-(2-tert-butyl-1H-indol-3-yl)-3,6-dihydroxy-5-(2-isopropyl-1H-indol-3-yl)-[1,4]-benzoquinone]	5
CC(C)(C)c1[nH]c2ccccc2c1C1=C(O)C(=O)C(c2c(C(C)(C)C)[nH]c3ccccc23)=C(O)C1=O [9C, 2-(2-tert-butyl-1H-indol-3-yl)-3,6-dihydroxy-5-(2-tert-butyl-1H-indol-3-yl)-[1,4]-benzoquinone]	5.1
CC(C)(C)c1[nH]c2ccccc2c1C1=C(O)C(=O)C(c2c(-c3ccccc3)[nH]c3ccccc23)=C(O)C1=O [9D, 2-(2-tert-butyl-1H-indol-3-yl)-3,6-dihydroxy-5-(2-phenyl-1H-indol-3-yl)-[1,4]-benzoquinone]	6.1
COc1cccc2[nH]cc(C3=C(O)C(=O)C(c4c(C(C)(C)C)[nH]c5ccccc45)=C(O)C3=O)c12 [9E, 2-(2-tert-butyl-1H-indol-3-yl)-3,6-dihydroxy-5-(4-methoxy-1H-indol-3-yl)-[1,4]-benzoquinone]	13.7
CC(C)(C)c1[nH]c2ccccc2c1C1=C(O)C(=O)C(c2c[nH]c3cccc(OCc4ccccc4)c23)=C(O)C1=O [9F, 2-(2-tert-butyl-1H-indol-3-yl)-3,6-dihydroxy-5-(4-benzyloxy-1H-indol-3-yl)-[1,4]-benzoquinone]	2.3
CC(C)(C)c1[nH]c2ccccc2c1C1=C(O)C(=O)C(c2c[nH]c3ccc(F)cc23)=C(O)C1=O [9G, 2-(2-tert-butyl-1H-indol-3-yl)-3,6-dihydroxy-5-(5-fluoro-1H-indol-3-yl)-[1,4]-benzoquinone]	8.7
COc1ccc2[nH]cc(C3=C(O)C(=O)C(c4c(C(C)(C)C)[nH]c5ccccc45)=C(O)C3=O)c2c1 [9H, 2-(2-tert-butyl-1H-indol-3-yl)-3,6-dihydroxy-5-(5-methoxyl-1H-indol-3-yl)-[1,4]-benzoquinone]	80.3
Cc1[nH]c2ccccc2c1C1=C(O)C(=O)c2cccc(O)c2C1=O [11D, 2,5-dihydoxy-3-(2-methyl-1H-indol-3-yl)-[1,4]naphthoquinone]	18
